Experiments:
Type in all cases: physicochemical
Solubility in water = test: Solubility in water
Source text: (§1) Thus, the ability to produce a shelf-stable parenteral formulation is unexpected.

[1] = Stability in 100% polyethylene glycol (PEG) 400 solution; conditions: 100% PEG 400, 50° C., in the dark, after 4 weeks
Source text: as §1

[2] = Stability in 100% propylene glycol (PG) solution; conditions: 50° C., in the dark, after 4 weeks
Source text: as §1

SMILES	solubility in water (Solubility in water)	degradation in a solution of 100% PEG 400 [1] [%]	degradation in a solution of 100% PG [2] [%]
Cc1ccc(Nc2c(F)cccc2Cl)c(CC(=O)O)c1 [5-methyl-2-(2′-chloro-6′-fluoroanilino)phenylacetic acid]	relatively insoluble		
Cc1ccc(Nc2c(F)cccc2Cl)c(CC(=O)[O-])c1.[K+] [Potassium salt of 5-methyl-2-(2′-chloro-6′-fluoroanilino)phenylacetic acid]		5	7

From US20080287543A1, “Pharmaceutical composition comprising 5-methyl-2 (2'-chloro-6'-fluoroanillino) phen ylacetic acid” (priority 2003, published 2008)
